From patent US5604294A, “Macrocyclic immunomodulators” (priority 1994, dated 1997)

System: human mixed lymphocyte reaction (MLR)
Test: human mixed lymphocyte reaction (MLR) assay (immunosuppressant activity)
Type: cell-based
Conditions: Lymphocyte, Table 1
Experimental: The immunosuppressant activity of the compounds of the present invention was determined using the human mixed lymphocyte reaction (MLR) assay described by Kino, T. et al. in Transplantation Proceedings, XIX(5):36-39,Suppl.

Compound	IC50 [nM]
CC[C@@H]1/C=C(\C)C[C@H](C)C[C@H](OC)[C@H]2O[C@@](O)(C(=O)C(=O)N3CCCC[C@H]3C(=O)O[C@H](/C(C)=C/[C@@H]3CC[C@@H](OC(=S)Oc4ccccc4)[C@H](OC)C3)[C@H](C)[C@@H](O)CC1=O)[C@H](C)C[C@@H]2OC [Example 1]	0.7
CC[C@@H]1/C=C(\C)C[C@H](C)C[C@H](OC)[C@H]2O[C@@](O)(C(=O)C(=O)N3CCCC[C@H]3C(=O)O[C@H](/C(C)=C/[C@@H]3CC[C@@H](O)[C@H](OC)C3)[C@H](C)C=CC1=O)[C@H](C)C[C@@H]2OC [Example 3]	80
CC[C@@H]1/C=C(\C)C[C@H](C)C[C@H](OC)[C@H]2O[C@@](O)(C(=O)C(=O)N3CCCC[C@H]3C(=O)O[C@H](/C(C)=C/[C@@H]3CCC(=O)[C@H](OC)C3)[C@H](C)[C@@H](O)CC1=O)[C@H](C)C[C@@H]2OC [Example 4]	0.4
CC[C@@H]1/C=C(\C)C[C@H](C)C[C@H](OC)[C@H]2O[C@@](O)(C(=O)C(=O)N3CCCC[C@H]3C(=O)O[C@H](/C(C)=C/[C@@H]3CC[C@@H](O)[C@H](OC)C3)[C@H](C)C(=O)CC1=O)[C@H](C)C[C@@H]2OC [Example 7]	113
CC[C@@H]1/C=C(\C)C[C@H](C)C[C@H](OC)[C@H]2O[C@@](O)(C(=O)C(=O)N3CCCC[C@H]3C(=O)O[C@H](/C(C)=C/[C@@H]3CC[C@@H](O)[C@H](OC)C3)[C@H](C)c3cc1nn3CCO)[C@H](C)C[C@@H]2OC [Example 8]	380
CC[C@@H]1/C=C(\C)C[C@H](C)C[C@H](OC)[C@H]2O[C@@](O)(C(=O)C(=O)N3CCCC[C@H]3C(=O)O[C@H](/C(C)=C/[C@@H]3CC[C@@H](OC(=N)C(Cl)(Cl)Cl)[C@H](OC)C3)[C@H](C)[C@@H](O)CC1=O)[C@H](C)C[C@@H]2OC [Example 9]	0.02
CC[C@@H]1/C=C(\C)C[C@H](C)C[C@H](OC)[C@H]2O[C@@](O)(C(=O)C(=O)N3CCCC[C@H]3C(=O)O[C@H](/C(C)=C/[C@@H]3CC[C@@H](O)[C@H](OC)C3)[C@H](C)C(N3CCN(Cc4ccccc4)CC3)CC1=O)[C@H](C)C[C@@H]2OC (stereo partly drawn) [Example 16]	191
CC[C@@H]1/C=C(\C)C[C@H](C)C[C@H](OC)[C@H]2O[C@@](O)(C(=O)C(=O)N3CCCC[C@H]3C(=O)O[C@H](/C(C)=C/[C@@H]3CC[C@@H](O)[C@H](OC)C3)[C@H](C)C(N3CCN(C)CC3)CC1=O)[C@H](C)C[C@@H]2OC (stereo partly drawn) [Example 17]	47.4
CC[C@@H]1/C=C(\C)C[C@H](C)C[C@H](OC)[C@H]2O[C@@](O)(C(=O)C(=O)N3CCCC[C@H]3C(=O)O[C@H](/C(C)=C/[C@@H]3CC[C@@H](O)[C@H](OC)C3)[C@H](C)C(N3CCN(c4ccccc4)CC3)CC1=O)[C@H](C)C[C@@H]2OC (stereo partly drawn) [Example 18]	119
CC[C@@H]1/C=C(\C)C[C@H](C)C[C@H](OC)[C@H]2O[C@@](O)(C(=O)C(=O)N3CCCC[C@H]3C(=O)O[C@H](/C(C)=C/[C@@H]3CC[C@@H](O)[C@H](OC)C3)[C@H](C)[C@@H](OC(=O)CI)CC1=O)[C@H](C)C[C@@H]2OC [Example 21]	9.3
CC[C@@H]1/C=C(\C)C[C@H](C)C[C@H](OC)[C@H]2O[C@@](O)(C(=O)C(=O)N3CCCC[C@H]3C(=O)O[C@H](/C(C)=C/[C@@H]3CC[C@@H](OC(=O)CI)[C@H](OC)C3)[C@H](C)[C@@H](O)CC1=O)[C@H](C)C[C@@H]2OC [Example 23]	1.4
CC[C@@H]1/C=C(\C)C(O)[C@H](C)C[C@H](OC)[C@H]2O[C@@](O)(C(=O)C(=O)N3CCCC[C@H]3C(=O)O[C@H](/C(C)=C/[C@@H]3CC[C@@H](O)[C@H](OC)C3)[C@H](C)[C@@H](OC(=O)CI)CC1=O)[C@H](C)C[C@@H]2OC (stereo partly drawn) [Example 25]	203
CC[C@@H]1/C=C(\C)C(O)[C@H](C)C[C@H](OC)[C@H]2O[C@@](O)(C(=O)C(=O)N3CCCC[C@H]3C(=O)O[C@H](/C(C)=C/[C@@H]3CC[C@@H](OC(=O)CI)[C@H](OC)C3)[C@H](C)[C@@H](O)CC1=O)[C@H](C)C[C@@H]2OC (stereo partly drawn) [Example 26]	125
CC[C@@H]1/C=C(\C)C[C@H](C)C[C@H](OC)[C@H]2O[C@@](O)(C(=O)C(=O)N3CCCC[C@H]3C(=O)O[C@H](/C(C)=C/[C@@H]3CC[C@@H](O)[C@H](OC)C3)[C@H](C)C(N3CCNCC3)CC1=O)[C@H](C)C[C@@H]2OC (stereo partly drawn) [Example 27]	521

Same assay, conditions: Table 1

Compound	IC50 [nM]
CC[C@@H]1/C=C(\C)C[C@H](C)C[C@H](OC)[C@H]2O[C@@](O)(C(=O)C(=O)N3CCCC[C@H]3C(=O)O[C@H](/C(C)=C/[C@@H]3CC[C@@H](OP(=O)(Oc4ccccc4)Oc4ccccc4)[C@H](OC)C3)[C@H](C)[C@@H](OP(=O)(Oc3ccccc3)Oc3ccccc3)CC1=O)[C@H](C)C[C@@H]2OC [Example 10]	11.1
